Data published in patent publication US5298523A, “Method for treating transplant patients using mycalamide compounds” (priority 1992, dated 1994).
In brackets after ≈: the same amount, converted by molar mass. Where two headings read alike, the source gives them in different places.

Key:
[1] = system: human peripheral blood lymphocytes (PBL); assay: Mitogen-induced proliferation of human peripheral blood lymphocytes; assay type: cell-based; details: Lymphocyte; for activity at 0.5 µg/mL: 5.0 × 10^-1 μg/ml; for activity at 0.05 µg/mL: 5.0 × 10^-2 μg/ml; for activity at 0.005 µg/mL: 5.0 × 10^-3 μg/ml; for activity at 0.0005 µg/mL: 5.0 × 10^-4 μg/ml; for activity at 50 pg/mL: 5.0 × 10^-5 μg/ml; for activity at 5 pg/mL: 5.0 × 10^-6 μg/ml; for activity at 500 fg/mL: 5.0 × 10^-7 μg/ml; for activity at 50 fg/mL: 5.0 × 10^-8 μg/ml; for activity at 5 fg/mL: 5.0 × 10^-9 μg/ml; for activity at 5e-10 µg/mL: 5.0 × 10^-10 μg/ml; for activity at 5e-11 µg/mL: 5.0 × 10^-11 μg/ml
Method: Preparation of human peripheral blood leukocyte (PBL) suspensions. Human peripheral blood suspensions were prepared from Leukotrap blood filters as follows: Leukotrap filters containing processed leukocytes from random, unrelated blood donors were obtained from the Indian River Blood Bank (Vero Beach, Fla.). Buffy-coat blood cell suspensions were recovered by reverse-flow phosphate-buffered saline purging and centrifugation for 15 minutes at 475× g. Buffy coats were removed, and 5 ml of the suspension was layered onto 5 ml of Histopaque gradient material. The Histopaque gradients were centrifuged at 475× g for 30 minutes. Lymphocytes were removed from the Histopaque-medium interface, and washed twice with 10 ml of PBS (Dulbecco's phosphate-buffered saline without CaCl2 and MgCl2.6H2 O). The final cell pellet was resuspended in TCM, and the cell concentration adjusted to 2×10^6 cells/ml.

murine CD4^+ T cells = assay: Activation of CD4+ T cells by anti-CD3 mAb/mB7; assay type: cell-based, murine (BALB/c)
Method: (A) Costimulation of T cells with anti-CD3 mAb and mB7. […] (B) Costimulation of T cells with mB7 and PMA. […] All cultures were incubated for 48 hours and pulsed with 1 μCi [ ^3 H] thymidine/well for the last 6 hours of the incubation period to assay for T cell proliferation.
(§1) (A) Costimulation of T cells with anti-CD3 mAb and mB7. 2×10^5 purified BALB/c CD4^+ T lymphocytes were stimulated with the indicated concentrations of anti-CD3 mAb in the presence of medium (.largecircle.), 2×10^4 paraformaldehyde-fixed CHO-mB7 cells (.quadrature.), or 2×10^4 paraformaldehyde-fixed CHO-mB7 cells in the presence of 0.1 nM FK506 (.gradient.), 1 nM FK506 (Δ), or 10 nM FK506 ( ). (B) Costimulation of T cells with mB7 and PMA. 2×10^5 purified BALB/c CD4^+ T lymphocytes were stimulated with the indicated concentrations of PMA and either medium (.largecircle.), 2×10^4 paraformaldehyde-fixed CHO-mB7 cells (.quadrature.), or paraformaldehyde-fixed CHO-mB7 cells in the presence of 0.1 nM FK506 (.gradient.), 1 nM FK506 (Δ), or 10 nM FK506 ( ). All cultures were incubated for 48 hours and pulsed with 1 μCi [^3 H] thymidine/well for the last 6 hours of the incubation period to assay for T cell proliferation.
as §1, with “pM mycalamide A” for “nM FK506”
mB7-mediated activation of murine CD4^+ T cells. Mouse T cells were purified as follows: splenocytes were depleted of red blood cells by treatment with Tris-NH4 Cl. T cells were enriched by nylon wool fractionation. CD4^+ T cells from BALB/c mice were purified by two-fold treatment with a mixture of anti-MHC Class II and anti-CD8 monoclonal antibodies and rabbit complement. Chinese hamster ovary cells (CHO) and CHO cells transfected with the murine B7 molecule (CHOmB7) were fixed with 1% paraformaldehyde prior to addition to the cultures. Microcultures were set up in duplicate 96-well plates. […] All cultures were incubated for 48 hours and pulsed with 1 μCi ^3 H-thymidine/well for the last 6 hours of the incubation period to assay for T cell proliferation.

T cells = assay: T cell viability by trypan blue exclusion; assay type: cell-based, murine
Method: (§2) Determination of mycalamide A toxicity. The toxicity of mycalamide A on murine splenocytes and human PBL was determined using a colorimetric assay, based on the ability of viable cells to convert the colorless tetrazolium salt, 3-(4,5-dimethylthiazol-2yl)-2,5-diphenyl tetrazolium bromide (MTT) to a colored formazan product and trypan blue exclusion. For the colorimetric assay, a volume of 0.075 ml of an MTT solution (550 μg/ml of MTT in TCM) was added to test and control wells containing one of the populations of splenocytes or test wells and incubated for 5-6 hours following the initial incubation period. Microtiter plates were centrifuged at 100× g, supernatants carefully removed, and a volume of 0.20 ml of isopropyl alcohol was added to each well to dissolve the formazan crystals. The absorbance at 570 nm was determined for each well using an ELISA plate reader. […] As an additional parameter of toxicity, wells containing cultured lymphocytes with various dilutions of mycalamide A were examined with trypan blue, and the percentage of dye-excluding (viable) cells was determined.
(§3) Compounds were added as indicated. Cells were harveste
(§4) Each data point represents the mean value o

[2] = T cell viability by trypan blue exclusion; assay type: cell-based, murine; details: t cells, read-out: percentage of trypan blue-positive cells
Method: as §2, §3, §4

[3] = Con A, read-out: Con A, % of control
[4] = PHA, read-out: PHA, % of control

**Q.** Which results are given for C=C1CC(OC)(C(O)C(=O)NC2OCOC3C2OC(CC(O)CO)C(C)(C)C3OC)OC(C)C1C (centres unmarked) [Mycalamide A, mycalamide A]?
**A.** activity at 0.5 µg/mL [1, 3]: 0%; activity at 0.05 µg/mL [1, 3]: 0%; activity at 0.005 µg/mL [1, 3]: 0%; activity at 0.0005 µg/mL [1, 3]: 10%; activity at 50 pg/mL [1, 3]: 44%; activity at 5 pg/mL [1, 3]: 74%; activity at 500 fg/mL [1, 3]: 78%; activity at 50 fg/mL [1, 3]: 82%; activity at 5 fg/mL [1, 3]: 90%; activity at 5e-10 µg/mL [1, 3]: 99%; activity at 5e-11 µg/mL [1, 3]: 93%; activity at 0.5 µg/mL [1, 4]: 0%; activity at 0.05 µg/mL [1, 4]: 0%; activity at 0.005 µg/mL [1, 4]: 0%; activity at 0.0005 µg/mL [1, 4]: 9%; activity at 50 pg/mL [1, 4]: 41%; activity at 5 pg/mL [1, 4]: 41%; activity at 500 fg/mL [1, 4]: 40%; activity at 50 fg/mL [1, 4]: 43%; activity at 5 fg/mL [1, 4]: 42%; activity at 5e-10 µg/mL [1, 4]: 36%; activity at 5e-11 µg/mL [1, 4]: 47%; IC50 ([1]; read-out: IC50, PHA stimulation of human PBL): ~0.0057 ng/mL (≈ 0.0113 nM); effect on anti-CD3/mB7 activation of CD4+ cells (murine CD4^+ T cells; anti-CD3/mB7, in words): blocks activation; times more potent than FK506 (murine CD4^+ T cells; immunosuppressive activity vs FK506): 10 times; times more potent than cyclosporin A (murine CD4^+ T cells; immunosuppressive activity vs cyclosporin A): approximately 1000 times; suppressive activity compared with FK506 or CsA (murine CD4^+ T cells; in words): superior to FK506 or CsA; number of cells excluding trypan blue (T cells; 1 pM, Experiment 1, 20 hours): 1.39 × 10^6 cells; number of cells excluding trypan blue (T cells; 1 pM, Experiment 2, 20 hours): 1.45 × 10^6 cells; percentage of trypan blue-positive cells (T cells; 1 pM, Experiment 2, 20 hours): < 2%; number of cells excluding trypan blue (T cells; 5 pM, Experiment 1, 20 hours): 1.41 × 10^6 cells; number of cells excluding trypan blue (T cells; 5 pM, Experiment 2, 20 hours): 1.68 × 10^6 cells; percentage of trypan blue-positive cells (T cells; 5 pM, Experiment 2, 20 hours): < 2%; number of cells excluding trypan blue (T cells; 10 pM, Experiment 2, 20 hours): 1.49 × 10^6 cells; effect on T cell viability (T cells; trypan blue exclusion, in words): did not significantly affect the cell viability; cytotoxicity at 20 h, 1e-06 µM ([2]; 1 pM, Experiment 1, 20 hours): < 2%; cytotoxicity at 20 h, 5e-06 µM ([2]; 5 pM, Experiment 1, 20 hours): < 2%; cytotoxicity at 20 h, 1e-05 µM ([2]; 10 pM, Experiment 2, 20 hours): < 2%
